The results in this text go back to patent US7989460B2, “Quinazoline derivatives as angiogenesis inhibitors” (AstraZeneca AB, priority 2003, dated 2011).

Assay [1] concerns the target T1, human ether-a-go-go-related-gene (hERG)-encoded potassium channel (Homo sapiens, UniProt Q12809).
T1 construct: expressed in transfected cells; host or cells: Human embryonic kidney (HEK) cells
Nature of the assay: hERG-encoded potassium channel inhibition test (d). The format is cell-based. Particulars: HEK cells expressing hERG-encoded channel, tail current, whole cell patch clamp. How it is done: d) hERG-encoded Potassium Channel Inhibition Test
This assay determines the ability of a test compound to inhibit the tail current flowing through the human ether-a-go-go-related-gene (hERG)-encoded potassium channel.
Human embryonic kidney (HEK) cells expressing the hERG-encoded channel were grown in Minimum Essential Medium Eagle (EMEM; Sigma-Aldrich catalogue number M2279), supplemented with 10% Foetal Calf Serum (Labtech International; product number 4-101-500), 10% M1 serum-free supplement (Egg Technologies; product number 70916) and 0.4 mg/ml Geneticin G418 (Sigma-Aldrich; catalogue number G7034). […]
For each cell recorded, a glass coverslip containing the cells was placed at the bottom of a Perspex chamber containing bath solution (see below) at ambient temperature ([…]). […]
The cell was recorded in the whole cell configuration of the patch clamp technique. […]
The amplitude of the hERG-encoded potassium channel tail current following the step from +40 mV to −50 mV was recorded on-line by Clampex software (Axon Instruments). […]
The effect of each concentration of test compound was quantified by expressing the tail current amplitude in the presence of a given concentration of test compound as a percentage of that in the presence of vehicle. […]
On the technique in general: The hERG channel carries a current that helps repolarise heart muscle cells.

Assay [2] addresses T2, KDR (Homo sapiens, UniProt P35968).
T2 construct: made in house; host or cells: insect cells (Spodoptera frugiperda Sf21, baculovirus)
The experiment in a line: In vitro receptor tyrosine kinase inhibition test (a), enzyme assay against KDR. The format is biochemical. The conditions noted are these: KDR cytoplasmic domain. The source says: (a) In Vitro Receptor Tyrosine Kinase Inhibition Test
This assay determines the ability of a test compound to inhibit tyrosine kinase activity. DNA encoding VEGF, FGF or EGF receptor cytoplasmic domains may be obtained by total gene synthesis (Edwards M, International Biotechnology Lab 5(3), 19-25, 1987) or by cloning. These may then be expressed in a suitable expression system to obtain polypeptide with tyrosine kinase activity. […] In the case of the VEGF receptor Flt-1 (Genbank accession number X51602), a 1.7 kb DNA fragment encoding most of the cytoplasmic domain, commencing with methionine 783 and including the termination codon, described by Shibuya et al (Oncogene, 1990, 5: 519-524), was isolated from cDNA and cloned into a baculovirus transplacement vector (for example pAcYM1 (see The Baculovirus Expression System: A Laboratory Guide, L. A. King and R. D. Possee, Chapman and Hall, 1992) or pAc360 or pBlueBacHis (available from Invitrogen Corporation)). This recombinant construct was co-transfected into insect cells (for example Spodoptera frugiperda 21(5f21)) with viral DNA (eg Pharmingen BaculoGold) to prepare recombinant baculovirus. […]

T1 sequence (Q12809 whole entry): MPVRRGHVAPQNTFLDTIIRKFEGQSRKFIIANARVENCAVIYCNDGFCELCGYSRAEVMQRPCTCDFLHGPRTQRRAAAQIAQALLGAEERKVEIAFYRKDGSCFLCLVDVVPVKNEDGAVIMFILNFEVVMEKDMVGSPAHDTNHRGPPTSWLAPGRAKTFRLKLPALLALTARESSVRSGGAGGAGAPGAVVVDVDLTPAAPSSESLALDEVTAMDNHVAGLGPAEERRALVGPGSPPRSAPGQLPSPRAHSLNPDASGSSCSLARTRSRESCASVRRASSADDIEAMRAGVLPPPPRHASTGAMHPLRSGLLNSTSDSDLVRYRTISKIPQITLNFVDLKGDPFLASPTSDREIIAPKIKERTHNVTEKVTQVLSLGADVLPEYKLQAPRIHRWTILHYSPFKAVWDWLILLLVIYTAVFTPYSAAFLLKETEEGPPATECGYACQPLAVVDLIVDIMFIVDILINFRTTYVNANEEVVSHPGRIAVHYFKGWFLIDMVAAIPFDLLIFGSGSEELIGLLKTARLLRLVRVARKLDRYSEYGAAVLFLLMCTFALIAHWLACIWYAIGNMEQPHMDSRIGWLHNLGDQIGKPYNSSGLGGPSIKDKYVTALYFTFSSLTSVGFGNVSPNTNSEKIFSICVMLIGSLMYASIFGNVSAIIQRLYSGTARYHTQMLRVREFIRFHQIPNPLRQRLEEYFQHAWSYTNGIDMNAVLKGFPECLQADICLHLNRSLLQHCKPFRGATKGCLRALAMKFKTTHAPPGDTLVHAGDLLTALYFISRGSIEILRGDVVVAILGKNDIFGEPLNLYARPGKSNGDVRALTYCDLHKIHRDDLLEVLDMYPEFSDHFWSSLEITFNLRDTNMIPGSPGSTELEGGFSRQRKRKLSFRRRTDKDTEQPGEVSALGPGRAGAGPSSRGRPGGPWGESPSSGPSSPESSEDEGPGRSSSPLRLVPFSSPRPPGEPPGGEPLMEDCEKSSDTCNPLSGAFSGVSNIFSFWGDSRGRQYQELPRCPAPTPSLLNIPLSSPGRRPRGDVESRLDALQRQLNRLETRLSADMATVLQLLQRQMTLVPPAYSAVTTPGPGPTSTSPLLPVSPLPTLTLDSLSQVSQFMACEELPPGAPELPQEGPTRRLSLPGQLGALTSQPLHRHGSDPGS
T2 sequence (P35968 786-1356 limits assumed): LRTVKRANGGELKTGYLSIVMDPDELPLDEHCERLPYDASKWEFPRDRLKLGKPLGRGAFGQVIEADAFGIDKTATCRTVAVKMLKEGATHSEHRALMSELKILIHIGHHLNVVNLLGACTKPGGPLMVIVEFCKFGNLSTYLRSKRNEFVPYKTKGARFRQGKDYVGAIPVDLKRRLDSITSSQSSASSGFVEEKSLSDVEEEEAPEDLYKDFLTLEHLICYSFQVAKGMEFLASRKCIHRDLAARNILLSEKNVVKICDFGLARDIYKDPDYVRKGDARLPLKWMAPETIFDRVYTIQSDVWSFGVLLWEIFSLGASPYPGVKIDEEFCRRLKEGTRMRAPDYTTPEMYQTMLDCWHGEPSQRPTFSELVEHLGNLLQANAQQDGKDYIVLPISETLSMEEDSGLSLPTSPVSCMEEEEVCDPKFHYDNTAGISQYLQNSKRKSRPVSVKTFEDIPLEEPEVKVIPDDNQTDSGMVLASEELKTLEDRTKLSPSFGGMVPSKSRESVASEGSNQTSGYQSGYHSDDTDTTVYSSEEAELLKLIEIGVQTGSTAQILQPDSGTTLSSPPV

For the molecule `COc1cc2c(Oc3ccc4[nH]c(C)c(C)c4c3)ncnc2cc1OCCN1CCN(CC(C)=O)CC1` [Example 11, 7-{2-[4-(acetylmethyl)piperazin-1-yl]ethoxy}-4-[(2,3-dimethyl-1H-indol-5-yl)oxy]-6-methoxyquinazoline], the results for the IC50 in assay [1] and in assay [2] were 10.1 µM and 0.104 µM, respectively.

In general, IC50 refers to the point on the concentration scale where inhibition reaches its midpoint.
